Activity calls are given as the source filed them.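 The calls were made as follows: active = growth-inhibition EC50 no more than tenfold above the top tested dose; inconclusive = flat fit between 30% and 70% inhibition, or unreliable fit; inactive = EC50 more than tenfold above the top tested dose.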
tested on: E. coli NEB5alpha growth, BacTiter-Glo luminescence, 4 h; test: Escherichia coli growth inhibition, dose response, counter-screen for MEX-5/POS-1 RNA-binding inhibitor project, luminescence, NEB5alpha (AID 1959);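 also: pUC19-transformed ampicillin-resistant cells grown in LB with ampicillin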

Row | SMILES | EC50
1 | CCOc1ccc(C2OC34CCCCC3C(C#N)(C#N)C2(C#N)C(=N)O4)cc1OC (centres undefined) | > 11 µM (inactive)
2 | Cn1c(=O)[nH]c(=O)c2c1nc(N/N=C/C(Br)=C/c1ccccc1)n2CCO | > 11 µM (inactive)
3 | N#CC(C#N)=Cc1cccn1-c1ccc(C(=O)O)cc1 | > 11 µM (inactive)
4 | O=C1/C(=N\S(=O)(=O)c2cccs2)C([n+]2ccc(CCCc3ccccc3)cc2)=C([O-])c2ccccc21 | > 11 µM (inactive)
5 | Cn1nc(C(F)(F)F)cc1-c1ccc(/C=C(\C#N)C(=O)c2ccccc2)s1 | > 11 µM (inactive)
6 | Oc1ccc(-c2cnns2)c(O)c1 | > 11 µM (inactive)
7 | CC1(OC(=O)C2CCCC2)C(=O)C=C2C=C(C3CC3)OC=C2C1=O (centres undefined) | > 11 µM (inactive)
8 | CCOc1ccc(/C=c2\sc3nc(-c4ccco4)nn3c2=O)cc1OCC | > 11 µM (inactive)
9 | C=CCOc1cccc(C2C(C(=O)c3cc4ccccc4o3)=C(O)C(=O)N2c2cc(C)on2)c1 (centres undefined) | > 11 µM (inactive)
10 | COc1cc2c3nnc(-c4ccccc4)c-3cn(Cc3ccccc3F)c2cc1OC | > 11 µM (inactive)
11 | COc1ccc(C2C(C(C)=O)=C(C)N=c3s/c(=C\c4cc(C)n(C)c4C)c(=O)n32)c(OC)c1 (centres undefined) | > 11 µM (inactive)
12 | C/C(=N\Nc1ccc([N+](=O)[O-])cc1[N+](=O)[O-])c1cc2c(ccc3ccccc32)oc1=O | > 11 µM (inactive)
13 | COC(=O)C1=C(C)N=C2SC(C#N)=C(N)N2C1c1cccc(OC)c1 (centres undefined) | > 11 µM (inactive)
14 | COc1ccc(C2c3cc(OC)c(OC)cc3CCN2S(C)(=O)=O)cc1OC (centres undefined) | > 11 µM (inactive)
15 | O=C(NCC1CCCO1)c1ccc(CS(=O)(=O)Cc2ccc(F)cc2)o1 (centres undefined) | > 11 µM (inactive)
16 | NC(=O)c1c(NC(=O)c2c(F)cccc2F)sc2c1CCN(Cc1ccccc1)C2 | > 11 µM (inactive)
17 | Nc1c(O)ccc2c1C(=O)c1ccccc1C2=O | > 11 µM (inactive)
18 | COc1ccc(C(=O)Nc2cc(C(C)=O)c(/C=C/N(C)C)oc2=O)cc1 | > 11 µM (inactive)
19 | Cc1ccc(C2c3sc(=O)[nH]c3SC3C(=O)NC(=O)C32)cc1 (centres undefined) | > 11 µM (inactive)
20 | Oc1ccc(N=Nc2ccccc2-c2nn[nH]n2)c(O)c1 | > 11 µM (inactive)
21 | CCCCCCn1c(=O)[nH]c2nc3cc(N)ccc3nc2c1=O | > 11 µM (inactive)
22 | CC1=C(C(=O)OCc2ccccc2)C(c2ccccc2[N+](=O)[O-])NC(=O)N1C (centres undefined) | > 11 µM (inactive)
23 | Cc1oc(/N=C/c2ccc(O)cc2O)c(C#N)c1C | > 11 µM (inactive)
24 | COc1cccc(N2C(=O)NC(=O)/C(=C/c3ccc([N+](=O)[O-])s3)C2=O)c1 | > 11 µM (inactive)

Row | SMILES | EC50
25 | CSCC(C)N1CCC(n2nccc2NC(=O)CCCc2ccccc2)CC1 (centres undefined) | > 11 µM (inactive)
26 | CSc1nnc(N2C(=O)C(O)=C(C(=O)c3ccco3)C2c2ccc(F)cc2)s1 (centres undefined) | > 11 µM (inactive)
27 | COc1ccc(-c2nnc(-c3cc4c(ccc5ccccc54)oc3=O)o2)cc1 | > 11 µM (inactive)
28 | O=C(O)c1ccccc1NS(=O)(=O)c1ccc(NNC(=S)Nc2ccc(OC(F)F)cc2)c([N+](=O)[O-])c1 | > 11 µM (inactive)
29 | Cc1ccc(/C(O)=C/c2nc3ccccc3oc2=O)cc1 | > 11 µM (inactive)
30 | CC1=CC(C)(C)N2C(=O)C3(C(C#N)=C(N)OC4=C3C(=O)CC(C)(C)C4)c3cc(C)cc1c32 (centres undefined) | > 11 µM (inactive)
31 | Cc1c(N=Cc2c(O)n(C)c(=O)c3ccccc23)c(=O)n(-c2ccccc2)n1C | > 11 µM (inactive)
32 | Cc1ccccc1NC(=O)CN1C(=O)S/C(=C\c2ccc(-c3cc(C(=O)O)ccc3C)o2)C1=O | > 11 µM (inactive)
33 | Fc1ccc(CNc2nc(-c3ccccc3)nc3ccccc23)cc1 | > 11 µM (inactive)
34 | CCOc1cccc(N2C(=O)/C(=C/c3ccco3)C(=O)NC2=S)c1 | > 11 µM (inactive)
35 | Nc1ccc2nc(CCCO)[nH]c2c1 | > 11 µM (inactive)
36 | CCNC(=O)c1cc2c(=O)n3cccc(C)c3nc2n(CCc2ccccc2)c1=N | > 11 µM (inactive)
37 | COCCNC(=O)C1Nc2ccc(C(F)(F)F)cc2C2C=CCC12 (centres undefined) | > 11 µM (inactive)
38 | O=c1[nH]c2ccc([N+](=O)[O-])cc2nc1/C=C(\O)c1ccccc1 | > 11 µM (inactive)
39 | CC1(C)CC(=O)C2=C(C1)OC(N)=C(C#N)[C@@H]2c1ccccc1[N+](=O)[O-] | > 11 µM (inactive)
40 | CC1OC(Oc2c(-c3cc(O)c(O)c(O)c3)oc3cc(O)cc(O)c3c2=O)C(O)C(O)C1O (centres undefined) | > 11 µM (inactive)
41 | CC(C)Cc1nnc(NC(=O)CCC(=O)N2CC(C)CC(C)C2)s1 (centres undefined) | > 11 µM (inactive)
42 | S=c1[nH]c2ccccc2n2c(=S)[nH]nc12 | > 11 µM (inactive)
43 | CCOC(=O)c1ccc(-n2c(CCC(=O)O)ccc2-c2ccc(F)cc2)cc1 | > 11 µM (inactive)
44 | NC(=O)C[n+]1cccc2ccccc21 | > 11 µM (inactive)
45 | CSc1ccc(C2C(C(=O)c3ccco3)=C(O)C(=O)N2c2nnc(SC)s2)cc1 (centres undefined) | > 11 µM (inactive)
46 | N#CC1=C(N)OC2=C(C(=O)CCC2)C12C(=O)N1CCCc3cccc2c31 (centres undefined) | > 11 µM (inactive)
47 | Cc1cccc(C)c1NC(=O)CN1C(=O)S/C(=C\c2cccn2-c2cccc(C(=O)O)c2)C1=O | > 11 µM (inactive)
48 | CC1(OC(=O)c2ccc(Cl)nc2)C(=O)C=C2C=C(C3CC3)OC=C2C1=O (centres undefined) | > 11 µM (inactive)

Row | SMILES | EC50
49 | O=C(N=c1ccn(-c2nc3ccccc3nc2NS(=O)(=O)c2ccccc2)cc1)c1ccccc1Cl | > 11 µM (inactive)
50 | COC(=O)CNC(=O)C1Nc2ccc(OC(F)(F)F)cc2C2C=CCC12 (centres undefined) | > 11 µM (inactive)
51 | O=C(O)c1ccc(-n2c(-c3cc(-c4ccco4)[nH]n3)n[nH]c2=S)cc1 | > 11 µM (inactive)
52 | O=C(N1CCOCC1)N1CCC(n2nnc3cc(F)ccc32)CC1 | > 11 µM (inactive)
53 | CCN(CC)CCN=Cc1c(O)n(Cc2ccccc2)c(=O)[nH]c1=O | > 11 µM (inactive)
54 | CN(C)[C@@H]1C(=O)C(C(N)=O)=C(O)[C@@]2(O)C(=O)C3=C(O)c4c(O)cccc4[C@@](C)(O)C3[C@H](O)C12 (some centres undefined) | 7.38 µM
55 | CN1CCc2cc3c(c4c2C1Cc1ccccc1-4)OCO3 (centres undefined) | > 11 µM (inactive)
56 | O=[N+]([O-])c1ccc(/C=N/n2cnc3ccccc32)s1 | > 11 µM (inactive)
57 | CCn1c(C)nc2cc(N)ccc21 | > 11 µM (inactive)
58 | CN1C(=O)/C(=C\c2ccc(N3CCCCC3)o2)C(=O)NC1=S | > 11 µM (inactive)
59 | O=c1[nH]c(=O)n(-c2cccc(Cl)c2)c(O)c1/C=N/c1ccccn1 | > 11 µM (inactive)
60 | C/C(=N\Nc1ncnc2sc(C)c(C)c12)c1ccccn1 | > 11 µM (inactive)
61 | O=C(C1=NN(c2ccccc2)C2C(=O)N(c3ccccc3Cl)C(=O)C12)c1ccccc1 (centres undefined) | > 11 µM (inactive)
62 | Cc1ccccc1N=Nc1c(O)n(C)c2ccccc12 | > 11 µM (inactive)
63 | Nc1ncnc(NNC(=O)CNC(=O)c2c(F)cccc2Cl)c1[N+](=O)[O-] | > 11 µM (inactive)
64 | CCSC1=N/C(=C\c2ccccc2)C(=O)N1 | > 11 µM (inactive)
65 | CCCC(C)NC(=O)c1ccc(C2SCC(=O)N2Cc2ccco2)cc1 (centres undefined) | > 11 µM (inactive)
66 | CCc1ccc(/C=C2\Oc3c(ccc(O)c3CN3CCN(CCO)CC3)C2=O)cc1 | > 11 µM (inactive)
67 | CCOc1ccc(N2C(=O)/C(=C/c3ccco3)C(=O)NC2=S)cc1 | > 11 µM (inactive)
68 | Nc1ccc2c(c1)-c1ccccc1S(=O)(=O)N2 | > 11 µM (inactive)
69 | CCn1c(C)cc(=S)c2ccccc21 | > 11 µM (inactive)
70 | O=C(OCC(=O)c1ccco1)c1ccc2ncsc2c1 | > 11 µM (inactive)
71 | CCNC(=O)c1cc2c(=O)n3cccc(C)c3nc2n(Cc2ccc(C)cc2)c1=N | > 11 µM (inactive)
72 | CCOc1cc(/C=C2\C(=O)NN(c3ccccc3)C2=O)cc([N+](=O)[O-])c1O | > 11 µM (inactive)

Row | SMILES | EC50
73 | CN(C)c1cccc2c1c(NS(=O)(=O)c1cn(C)cn1)nn2C | > 11 µM (inactive)
74 | O=C(N/N=C\c1cc([N+](=O)[O-])ccc1N1CCCC1)c1ccccn1 | > 11 µM (inactive)
75 | Cc1cc(/C=N/Nc2ccc([N+](=O)[O-])cn2)c(C)n1-c1ccc(C(=O)O)cc1 | > 11 µM (inactive)
76 | NS(=O)(=O)c1ccc(Nc2nc(-c3ccc(O)cc3O)cs2)cc1 | > 11 µM (inactive)
77 | C/C(=N/N=C(\C)c1ccccc1O)c1ccccc1O | > 11 µM (inactive)
78 | CCOC(=O)C1Nc2ccc(C(F)(F)F)cc2C2C=CCC12 (centres undefined) | > 11 µM (inactive)
79 | O=C(N/N=C/c1cc(Cl)cc([N+](=O)[O-])c1O)C(O)(c1ccccc1)c1ccccc1 | > 11 µM (inactive)
80 | N#CC(C(=O)NCc1ccccc1)c1nc2ccccc2nc1N1CCCC1 (centres undefined) | > 11 µM (inactive)
81 | CC(=O)Nc1ccc(NC(=O)C(C)OC(=O)/C(C#N)=C/c2ccc(N(C)C)cc2)cc1 (centres undefined) | > 11 µM (inactive)
82 | CCc1ccc(N2C(=O)NC(=O)/C(=C\c3cc(C)n(-c4cc(C(=O)O)cc(C(=O)O)c4)c3C)C2=O)cc1 | > 11 µM (inactive)
83 | COc1ccc(C(=O)/C=C/c2ccc(N3CCCCC3)c([N+](=O)[O-])c2)c(OC)c1 | > 11 µM (inactive)
84 | CCN(CC)C(=O)c1ccc2c(c1)C1C=CCC1C(C(=O)O)N2 (centres undefined) | > 11 µM (inactive)
85 | CC(=O)c1c(C(C)=O)c(C)n(-c2ccc(C(=O)O)cc2)c1C | > 11 µM (inactive)
86 | COc1cc(C2C(C#N)=C(N)OC3=C2C(=O)CC(C)(C)C3)cc2c1OCO2 (centres undefined) | > 11 µM (inactive)
87 | CCn1cc(C=C2C(=O)NC(=O)NC2=O)c2ccccc21 | > 11 µM (inactive)
88 | O=[N+]([O-])c1cc(-c2ccc([As](=O)(O)O)cc2)ccc1[As](=O)(O)O | > 11 µM (inactive)
89 | COc1cccc(C2C(C#N)=C(N)OC3=C2C(=O)CCC3)c1OC(=O)c1ccco1 (centres undefined) | > 11 µM (inactive)
90 | CCC(C)[C@@H](N)C(=O)N/N=C/c1cccc2nccnc12 (some centres undefined) | > 11 µM (inactive)
91 | CCN1C(=C(C#N)C#N)C=Cc2ccccc21 | > 11 µM (inactive)
92 | CCN(CC)c1ccc(/C=c2/sc3nnc(-c4ccccc4C)n3c2=O)cc1 | > 11 µM (inactive)
93 | C=CCOn1c(=O)c(-c2cc3ccccc3o2)[n+]([O-])c2ccccc21 | > 11 µM (inactive)
94 | OCCOc1ccc(C2=NCCO2)cc1 | > 11 µM (inactive)

From PubChem BioAssay AID1959 (Broad Institute, 2009)
